Experimental data: patent US20160287589A1, “SUBSTITUTED-IMIDAZOPYRIDAZINES” (BAYER PHARMA AKTIENGESELLSCHAFT, priority 2013, published 2016)

What was measured:
[1] = target: T1, MKNK1 (Homo sapiens, UniProt Q9BUB5, T385D); assay: MKNK1 kinase assay (MKNK1 TR-FRET assay); format: biochemical; settings: 10 μM ATP, 15 min preincubation
T1 construct: GST (N); purchased Carna Biosciences 02-145; host or cells: insect cells (baculovirus expression system)
Source text: MKNK1-inhibitory activity of compounds of the present invention was quantified employing the MKNK1 TR-FRET assay as described in the following paragraphs.
(§1) A recombinant fusion protein of Glutathione-S-Transferase (GST, N-terminally) and human full-lengt MKNK1 (amino acids 1-424 and T344D of accession number BAA 19885.1), expressed in insect cells using baculovirus expression system and purified via glutathione sepharose affinity chromatography, was purchased from Carna Biosciences (product no 02-145) and used as enzyme. As substrate for the kinase reaction the biotinylated peptide biotin-Ahx-IKKRKLTRRKSLKG (C-terminus in amide form) was used which can be purchased e.g. form the company Biosyntan (Berlin-Buch, Germany).
For the assay 50 nL of a 100 fold concentrated solution of the test compound in DMSO was pipetted into a black low volume 384 well microtiter plate (Greiner Bio-One, Frickenhausen, Germany), 2 μL of a solution of MKNK1 in aqueous assay buffer [50 mM HEPES pH 7.5, 5 mM magnesium chloride, 1.0 mM dithiothreitol, 0.005% (v/v) Nonidet-P40 (Sigma)] was added and the mixture was incubated for 15 min at 22° C. to allow pre-binding of the test compounds to the enzyme before the start of the kinase reaction. […] The concentration of MKNK1 was adjusted depending of the activity of the enzyme lot and was chosen appropriate to have the assay in the linear range, typical concentrations were in the range of […]. The reaction was stopped by the addition of 5 μL of a solution of TR-FRET detection reagents (5 nM streptavidine-XL665 [Cisbio Bioassays, Codolet, France] and 1 nM anti-ribosomal protein S6 (pSer236)-antibody from Invitrogen [#44921G] and 1 nM LANCE EU-W1024 labeled ProteinG [Perkin-Elmer, product no. AD0071]) in an aqueous EDTA-solution (100 mM EDTA, 0.1% (w/v) bovine serum albumin in 50 mM HEPES pH 7.5).
(§2) The resulting mixture was incubated for 1 h at 22° C. to allow the formation of complex between the phosphorylated biotinylated peptide and the detection reagents. Subsequently the amount of phosphorylated substrate was evaluated by measurement of the resonance energy transfer from the Eu-chelate to the streptavidine-XL. Therefore, the fluorescence emissions at 620 nm and 665 nm after excitation at 350 nm were measured in a TR-FRET reader, e.g. a Rubystar (BMG Labtechnologies, Offenburg, Germany) or a Viewlux (Perkin-Elmer). The ratio of the emissions at 665 nm and at […] was taken as the measure for the amount of phosphorylated substrate. The data were normalised (enzyme reaction without inhibitor=0% inhibition, all other assay components but no enzyme=100% inhibition).

[2] = target: T1, MKNK1; assay: MKNK1 kinase high ATP assay (TR-FRET-based); format: biochemical; settings: 2 mM ATP, 15 min preincubation
Experimental: MKNK1 Kinase High ATP Assay
MKNK1-inhibitory activity at high ATP of compounds of the present invention after their preincubation with MKNK1 was quantified employing the TR-FRET-based MKNK1 high ATP assay as described in the following paragraphs.
as §1, with “human full-length” for “human full-lengt”, “was used,” for “was used”, “e.g. from” for “e.g. form”
For the assay 50 nL of a 100 fold concentrated solution of the test compound in DMSO was pipetted into a black low volume 384 well microtiter plate (Greiner Bio-One, Frickenhausen, Germany), 2 μL of a solution of MKNK1 in aqueous assay buffer [50 mM HEPES pH 7.5, 5 mM magnesium chloride, 1.0 mM dithiothreitol, 0.005% (v/v) Nonidet-P40 (Sigma)] was added and the mixture was incubated for 15 min at 22° C. to allow pre-binding of the test compounds to the enzyme before the start of the kinase reaction. Then the kinase reaction was started by the addition of 3 μL of a solution of adenosine-tri-phosphate (ATP, 3.3 mM=>final conc. in the 5 μL assay volume is 2 mM) and substrate (0.1 μM=>final conc. in the 5 μL assay volume is 0.06 μM) in assay buffer and the resulting mixture was incubated for a reaction time of 30 min at 22° C. The concentration of MKNK1 was adjusted depending of the activity of the enzyme lot and was chosen appropriate to have the assay in the linear range, typical concentrations were in the range of 0.003 μg/mL. The reaction was stopped by the addition of 5 μL of a solution of TR-FRET detection reagents (5 nM streptavidine-XL665 [Cisbio Bioassays, Codolet, France] and 1 nM anti-ribosomal protein S6 (pSer236)-antibody from Invitrogen [#44921G] and 1 nM LANCE EU-W1024 labeled ProteinG [Perkin-Elmer, product no. AD0071]) in an aqueous EDTA-solution (100 mM EDTA, 0.1% (w/v) bovine serum albumin in 50 mM HEPES pH 7.5).
as §2

T1 sequence (Q9BUB5 1-424 isoform Q9BUB5-2 T344D): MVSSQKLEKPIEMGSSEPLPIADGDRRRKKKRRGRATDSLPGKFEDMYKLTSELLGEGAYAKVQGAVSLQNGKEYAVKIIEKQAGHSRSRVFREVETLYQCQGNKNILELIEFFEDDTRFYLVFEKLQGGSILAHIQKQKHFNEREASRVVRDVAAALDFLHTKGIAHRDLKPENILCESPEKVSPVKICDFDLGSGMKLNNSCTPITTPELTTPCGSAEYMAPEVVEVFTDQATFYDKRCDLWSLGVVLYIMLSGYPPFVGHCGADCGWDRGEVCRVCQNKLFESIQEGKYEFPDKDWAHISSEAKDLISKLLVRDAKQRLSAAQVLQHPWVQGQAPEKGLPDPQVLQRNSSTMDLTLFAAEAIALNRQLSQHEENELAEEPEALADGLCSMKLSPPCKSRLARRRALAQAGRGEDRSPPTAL

Row | SMILES | IC50 ([1]; Table 1c) | IC50 ([2]; Table 2c) | other results
1 | CN(CCCO)c1nccc2oc(-c3cnc4ccc(OC[C@H]5CCC(=O)N5)nn34)cc12 [III-73, (5R)-5-{[(3-{4-[(3-Hydroxypropyl)(methyl)amino]furo[3,2-c]pyridin-2-yl}imidazo[1,2-b]pyridazin-6-yl)oxy]methyl}pyrrolidin-2-one] | 0.6 nM | 0.8 nM | 
2 | Cn1cc(C(=O)N2CCC[C@H]2CCOc2ccc3ncc(-c4cc5ccccc5o4)n3n2)cn1 [Example I-48, [(2S)-2-(2-{[3-(1-Benzofuran-2-yl)imidazo[1,2-b]-pyridazin-6-yl]oxy}ethyl)pyrrolidin-1-yl](1-methyl-1H-pyrazol-4-yl)methanone] |  |  | IC50 ([1]; Table 1a): 1.8 nM; IC50 ([2]; Table 2a): 2.3 nM
3 | CN1CCN(c2nccc3oc(-c4cnc5ccc(OC[C@H]6CCC(=O)N6)nn45)cc23)CC1 [III-61, (5R)-5-[({3-[4-(4-Methylpiperazin-1-yl)furo[3,2-c]pyridin-2-yl]imidazo[1,2-b]pyridazin-6-yl}oxy)methyl]pyrrolidin-2-one] | 1 nM | 1.2 nM | 
4 | C[C@H](N)COc1ccc2ncc(-c3cc4c(N5CCOC[C@@H]5C)cccc4o3)n2n1 [II-31, (2S)-1-[(3-{4-[(3S)-3-methylmorpholin-4-yl]-1-benzofuran-2-yl}imidazo[1,2-b]pyridazin-6-yl)oxy]propan-2-amine] |  |  | IC50 ([1]; Table 1b): 24.2 nM; IC50 ([2]; Table 2b): 35.5 nM
5 | C[C@H](N)COc1ccc2ncc(-c3cc4c(N5CCCCC5)nccc4o3)n2n1 [III-9, (2S)-1-({3-[4-(Piperidin-1-yl)furo[3,2-c]pyridin-2-yl]imidazo[1,2-b]pyridazin-6-yl}oxy)propan-2-amine] | 10.6 nM | 20.4 nM | 
6 | CCN(CCOC)c1nccc2oc(-c3cnc4ccc(OC[C@H]5CCC(=O)N5)nn34)cc12 [III-69, (5R)-5-{[(3-{4-[Ethyl(2-methoxyethyl)amino]furo[3,2-c]pyridin-2-yl}imidazo[1,2-b]pyridazin-6-yl)oxy]methyl}pyrrolidin-2-one] | 0.4 nM | 0.1 nM | 
7 | CN(C)[C@H]1CCN(c2nccc3oc(-c4cnc5ccc(OCCCS(C)(=O)=O)nn45)cc23)C1 [III-114, (3S)-N,N-dimethyl-1-(2-{6-[3-(methylsulfonyl)propoxy]imidazo[1,2-b]pyridazin-3-yl}furo[3,2-c]pyridin-4-yl)pyrrolidin-3-amine] | 10.4 nM | 23.4 nM | 
8 | C[C@H]1CN(c2cccc3oc(-c4cnc5ccc(OC[C@H]6CCC(=O)N6)nn45)cc23)CCO1 [II-27, (5R)-5-{[(3-{4-[(2S)-2-methylmorpholin-4-yl]-1-benzofuran-2-yl}imidazo[1,2-b]pyridazin-6-yl)oxy]methyl}pyrrolidin-2-one] |  |  | IC50 ([1]; Table 1b): 2.2 nM; IC50 ([2]; Table 2b): 5.7 nM
9 | O=C(Cc1ccccc1)NCCOc1ccc2ncc(-c3cc4ccccc4o3)n2n1 [Example I-75, N-(2-{[3-(1-Benzofuran-2-yl)imidazo[1,2-b]-pyridazin-6-yl]oxy}ethyl)-2-phenylacetamide] |  |  | IC50 ([1]; Table 1a): 6 nM; IC50 ([2]; Table 2a): 17.7 nM
10 | C[C@H]1CN(c2cccc3oc(-c4cnc5ccc(O[C@H]6C[C@H](N)C6)nn45)cc23)CCO1 [II-43, trans-3-[(3-{4-[(2S)-2-methylmorpholin-4-yl]-1-benzofuran-2-yl}imidazo[1,2-b]pyridazin-6-yl)oxy]cyclobutanamine] |  |  | IC50 ([1]; Table 1b): 21.7 nM; IC50 ([2]; Table 2b): 37.5 nM
11 | COc1ccc2ncc(-c3cc4c(N5CCN[C@@H](C)C5)nccc4o3)n2n1 [III-133, 6-methoxy-3-{4-[(3S)-3-methylpiperazin-1-yl]furo[3,2-c]pyridin-2-yl}imidazo[1,2-b]pyridazine] | 2.7 nM | 13.1 nM | 
12 | CC(C)(C)C(=O)N1CCC[C@H]1CCOc1ccc2ncc(-c3cc4cnccc4o3)n2n1 [IV-7, 1-[(2S)-2-(2-{[3-(Furo[3,2-c]pyridin-2-yl)imidazo[1,2-b]pyridazin-6-yl]-oxy}ethyl)pyrrolidin-1-yl]-2,2-dimethylpropan-1-one] |  |  | IC50 ([1]; Table 1d): 1 nM; IC50 ([2]; Table 2d): 4 nM
13 | O=C(NCCOc1ccc2ncc(-c3cc4ccccc4o3)n2n1)c1ccccc1Cl [Example I-65, N-(2-{[3-(1-Benzofuran-2-yl)imidazo[1,2-b]-pyridazin-6-yl]oxy}ethyl)-2-chlorobenzamide] |  |  | IC50 ([1]; Table 1a): 5.2 nM; IC50 ([2]; Table 2a): 11.8 nM
14 | CS(=O)(=O)CCCOc1ccc2ncc(-c3cc4c(N5CCCCC5)nccc4o3)n2n1 [III-45, 6-[3-(methylsulfonyl)propoxy]-3-[4-(piperidin-1-yl)furo[3,2-c]pyridin-2-yl]imidazo[1,2-b]pyridazine] | 4.4 nM | 8.1 nM | 
15 | C[C@@H]1CN(c2nccc3oc(-c4cnc5ccc(O[C@H]6C[C@H](N)C6)nn45)cc23)C[C@H](C)O1 [III-104, trans-3-[(3-{4-[(2R,6S)-2,6-Dimethylmorpholin-4-yl]furo[3,2-c]pyridin-2-yl}imidazo[1,2-b]pyridazin-6-yl)oxy]cyclobutanamine] | 18.7 nM | 61.5 nM | 
16 | CN1CCC(N(C)c2nccc3oc(-c4cnc5ccc(O[C@H]6C[C@H](N)C6)nn45)cc23)CC1 [III-100, 2-{6-[(trans-3-Aminocyclobutyl)oxy]imidazo[1,2-b]pyridazin-3-yl}-N-methyl-N-(1-methylpiperidin-4-yl)furo[3,2-c]pyridin-4-amine] | 5.7 nM | 45.8 nM | 
17 | CC1(C)CN(c2cccc3oc(-c4cnc5ccc(OCC(F)(F)F)nn45)cc23)CCN1 [II-54, 3-[4-(3,3-dimethylpiperazin-1-yl)-1-benzofuran-2-yl]-6-(2,2,2-trifluoroethoxy)im-idazo[1,2-b]pyridazine] |  |  | IC50 ([1]; Table 1b): 2.3 nM; IC50 ([2]; Table 2b): 2.4 nM
18 | CN(C)[C@@H]1CCN(c2nccc3oc(-c4cnc5ccc(O[C@H]6C[C@H](N)C6)nn45)cc23)C1 [III-98, (3R)-1-(2-{6-[(trans-3-Aminocyclobutyl)oxy]imidazo[1,2-b]pyridazin-3-yl}furo[3,2-c]pyridin-4-yl)-N,N-dimethylpyrrolidin-3-amine] | 1.6 nM | 3.3 nM | 
19 | C[C@H](N)COc1ccc2ncc(-c3cc4c(N5CCCC5)nccc4o3)n2n1 [III-10, (2S)-1-({3-[4-(Pyrrolidin-1-yl)furo[3,2-c]pyridin-2-yl]imidazo[1,2-b]pyridazin-6-yl}oxy)propan-2-amine] | 15.4 nM | 63.5 nM | 
20 | O=C1CC[C@H](COc2ccc3ncc(-c4cc5c(N6CCCCC6)nccc5o4)n3n2)N1 [III-62, (5R)-5-[({3-[4-(Piperidin-1-yl)furo[3,2-c]pyridin-2-yl]imidazo[1,2-b]pyridazin-6-yl}oxy)methyl]pyrrolidin-2-one] | 2.4 nM | 1 nM | 
